Where “and” joins values, the source holds several entries; their conditions need not be identical. Equal values may be shown once. Read-outs that look alike come from different tables or passages of the source.
Experiments:
cyclin E/CDK2 enzyme = target: T1, cyclin E/CDK2 enzyme (Homo sapiens, UniProt P24941); test: CDK2 ELISA kinase assay (phospho-Rb ser 795 detection); format: biochemical
T1 construct: made in house; host or cells: Sf9 insect cells, recombinant baculovirus
How it was run: (§1)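 Screening was done at 10 ug/ml compound. Each partially purified cyclin/CDK complex, produced in baculovirus-infected Sf9 cells, phosphorylated a coated GST-Rb C-terminal fragment with 200 μM ATP, and Ser795 phosphorylation was quantified by HRP-ELISA at 450 nm.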

HCT-116 = test: Cytotoxicity assay (SRB), HCT-116; format: cell-based; conditions: Homo sapiens, HCT-116, 72 h, read-out: In Vitro Cellular Activity IC50 HCT116
How it was run: (§2)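 BT474 (12000 cells/well) was treated for 6 days, whereas HCT-116 (4000), LoVo (6000) and MCF-7 (6000) were treated for 3 days, all in RPMI 1640 containing 5% FBS. Surviving-cell percentage came from SRB dye binding measured at 540 nm.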

BT474 = test: Cytotoxicity assay (SRB), BT474; format: cell-based; conditions: Homo sapiens, BT-474, 144 h, read-out: In Vitro Cellular Activity IC50 BT474
How it was run: as §2

cyclin D1/cdk 4 enzyme = target: T2, cyclin D1/cdk 4 enzyme (Homo sapiens, UniProt P11802); test: CDK4 ELISA kinase assay (phospho-Rb ser 795 detection); format: biochemical
T2 construct: made in house; host or cells: Sf9 insect cells, recombinant baculovirus
T2 sequence (P11802 whole entry, species assumed): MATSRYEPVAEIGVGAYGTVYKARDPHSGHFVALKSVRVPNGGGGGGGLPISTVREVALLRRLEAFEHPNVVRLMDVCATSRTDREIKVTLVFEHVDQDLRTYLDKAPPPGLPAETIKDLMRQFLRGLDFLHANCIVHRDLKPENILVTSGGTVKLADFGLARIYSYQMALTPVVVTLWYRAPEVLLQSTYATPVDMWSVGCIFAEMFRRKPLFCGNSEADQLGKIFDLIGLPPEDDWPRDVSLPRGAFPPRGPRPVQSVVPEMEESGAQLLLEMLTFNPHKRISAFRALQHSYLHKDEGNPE
T2 sequence (P24385 whole entry partner, species assumed): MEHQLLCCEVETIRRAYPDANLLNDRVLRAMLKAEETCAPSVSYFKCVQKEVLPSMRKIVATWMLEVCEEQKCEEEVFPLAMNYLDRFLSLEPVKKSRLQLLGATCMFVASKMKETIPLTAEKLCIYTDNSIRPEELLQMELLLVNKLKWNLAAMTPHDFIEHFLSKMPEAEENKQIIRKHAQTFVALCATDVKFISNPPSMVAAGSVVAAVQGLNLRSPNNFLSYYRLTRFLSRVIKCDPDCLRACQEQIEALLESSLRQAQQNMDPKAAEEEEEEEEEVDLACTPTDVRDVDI
How it was run: as §1

MCF-7 = test: Cytotoxicity assay (SRB), MCF-7; format: cell-based; conditions: Homo sapiens, MCF7, 72 h, read-out: In Vitro Cellular Activity IC50 MCF-7
How it was run: as §2

LoVo = test: Cytotoxicity assay (SRB), LoVo; format: cell-based; conditions: Homo sapiens, LoVo, 72 h, read-out: In Vitro Cellular Activity IC50 LOVO
How it was run: as §2

cyclin B/CDK1 enzyme = target: T3, cyclin B/CDK1 enzyme (Homo sapiens, UniProt P06493); test: CDK1 ELISA kinase assay (phospho-Rb ser 795 detection); format: biochemical
T3 construct: purchased New England BioLabs; host or cells: Sf9 insect cells, recombinant baculovirus
T3 sequence (P06493 whole entry): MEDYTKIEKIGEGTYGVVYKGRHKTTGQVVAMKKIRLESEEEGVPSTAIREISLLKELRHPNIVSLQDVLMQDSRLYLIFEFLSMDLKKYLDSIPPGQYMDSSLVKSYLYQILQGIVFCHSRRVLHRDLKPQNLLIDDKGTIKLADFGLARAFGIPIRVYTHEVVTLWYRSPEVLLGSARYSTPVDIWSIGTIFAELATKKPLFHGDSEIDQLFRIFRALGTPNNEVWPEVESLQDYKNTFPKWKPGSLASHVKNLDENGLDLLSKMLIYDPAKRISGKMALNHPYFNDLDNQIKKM
T3 sequence (P14635 whole entry partner): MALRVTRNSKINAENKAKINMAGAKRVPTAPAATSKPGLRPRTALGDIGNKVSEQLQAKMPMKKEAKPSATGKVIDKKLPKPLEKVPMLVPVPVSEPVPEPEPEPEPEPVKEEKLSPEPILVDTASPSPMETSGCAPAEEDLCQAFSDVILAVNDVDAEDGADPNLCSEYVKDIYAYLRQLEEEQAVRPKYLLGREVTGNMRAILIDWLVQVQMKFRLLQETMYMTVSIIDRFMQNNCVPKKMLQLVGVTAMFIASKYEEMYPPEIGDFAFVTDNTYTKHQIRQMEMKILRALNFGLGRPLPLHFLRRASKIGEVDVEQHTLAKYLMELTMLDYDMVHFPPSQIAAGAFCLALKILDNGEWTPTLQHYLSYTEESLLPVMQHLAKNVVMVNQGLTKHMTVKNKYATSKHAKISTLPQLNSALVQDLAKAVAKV
How it was run: as §1

[1] = I.V. and P.O. Dosing in Mice; format: in vivo; conditions: for AUC(0-inf) / bioavailability: mouse, in vivo; for bioavailability: po 50 mg/kg vs i.v. 2 mg/kg
[2] = In Vitro Enzyme Assay, cyclin E/CDK2, read-out: CDK2 IC50
[3] = In Vitro Enzyme Assay, cyclin D1/cdk 4, read-out: CDK4 IC50
[4] = In Vitro Enzyme Assay, cyclin B/CDK1, read-out: CDK1 IC50
[5] = iv, 2 mg/kg, dose i.v. 2 mg/kg, read-out: aucinf obs (i.v.)
[6] = po, 50 mg/kg, dose po 50 mg/kg, read-out: aucinf obs (po)
[7] = In Vitro Enzyme Assays, read-out: CDK1 IC50
[8] = In Vitro Enzyme Assays, read-out: CDK2 IC50
[9] = In Vitro Enzyme Assays, 200 μM ATP, read-out: CDK4 IC50

Structure (SMILES)	Cl_obs ([1]; dose i.v. 2 mg/kg)	Vss_obs ([1]; dose i.v. 2 mg/kg)	HL_Lambda_z ([1]; dose po 50 mg/kg)	AUC(0-inf) [1, 5]	AUC(0-inf) [1, 6]	bioavailability ([1]; po, 50 mg/kg)	IC50 (HCT-116; HCT116 cells, SRB, three days)	IC50 (BT474; BT474 cells, SRB, 6 days)	IC50 (MCF-7; MCF-7 cells, SRB, three days)	IC50 (LoVo; LoVo cells, SRB, three days)	IC50 (cyclin B/CDK1 enzyme; [7])	IC50 (cyclin E/CDK2 enzyme; [8])	IC50 (cyclin D1/cdk 4 enzyme; [9])	melting point	further results
O=C1NC(=O)c2ccc(I)cc2/C1=C/NCc1ccn(-c2ccoc2)c(=O)c1 [Example 525, (4Z)-4-[({[1-(3-Furyl)-2-oxo-1,2-dihydropyridin-4-yl]methyl}amino)methylene]-6-iodoisoquinoline-1,3(2H,4H)-dione]	12 mL/min/kg	0.4 L/kg	3.4 h	2750 ng·h/mL	12000 ng·h/mL	17%									IC50 (cyclin E/CDK2 enzyme; [2]): 2600 nM; IC50 (HCT-116; HCT116 cells, 3 days, SRB): 710 nM; IC50 (BT474; BT474 cells, 6 days, SRB): 140 nM; IC50 (cyclin D1/cdk 4 enzyme; [3]): 60 nM; IC50 (MCF-7; MCF-7 cells, 3 days, SRB): 710 nM; IC50 (LoVo; LoVo cells, 3 days, SRB): 450 nM; IC50 (cyclin B/CDK1 enzyme; [4]): 11600 nM
O=C1NC(=O)c2ccc(I)cc2/C1=C/NCc1ccn(-c2ccsc2)c(=O)c1 [Example 539, (4Z)-6-Iodo-4-[({[2-oxo-1-(3-thienyl)-1,2-dihydropyridin-4-yl]methyl}amino)methylene]isoquinoline-1,3(2H,4H)-dione]	21 mL/min/kg	0.3 L/kg	0.8 h	1560 ng·h/mL	44 ng·h/mL	0.12%									IC50 (cyclin E/CDK2 enzyme; [2]): 41500 nM; IC50 (HCT-116): 340 nM; IC50 (BT474): 330 nM; IC50 (cyclin D1/cdk 4 enzyme; [3]): 290 nM; IC50 (MCF-7): 240 nM; IC50 (LoVo): 160 nM; IC50 (cyclin B/CDK1 enzyme; [4]): > 50000 nM
O=C1NC(=O)c2ccc(I)cc2/C1=C/NCc1ccn(-c2ccccc2)c(=O)c1 [Example 517, (4Z)-6-Iodo-4-({[(2-oxo-1-phenyl-1,2-dihydropyridin-4-yl)methyl]amino}methylene)isoquinoline-1,3(2H,4H)-dione]	14 mL/min/kg	0.5 L/kg	0.5 h	2360 ng·h/mL	39 ng·h/mL	0.07%									IC50 (cyclin E/CDK2 enzyme; [2]): > 50000 nM and 41500 nM; IC50 (HCT-116; HCT116 cells, 3 days, SRB): 250 nM; IC50 (BT474; BT474 cells, 6 days, SRB): 90 nM; IC50 (cyclin D1/cdk 4 enzyme; [3]): 270 nM; IC50 (MCF-7; MCF-7 cells, 3 days, SRB): 790 nM; IC50 (LoVo; LoVo cells, 3 days, SRB): 170 nM; IC50 (cyclin B/CDK1 enzyme; [4]): 29600 nM
O=C1NC(=O)c2ccc(I)cc2/C1=C/NCc1ccc(-c2ccoc2)c(O)c1 [Example 506, 4-[(4-Furan-3-yl-3-hydroxy-benzylamino)-methylene]-6-iodo-4H-isoquinoline-1,3-dione]	79 mL/min/kg	6.7 L/kg	2.6 h	423 ng·h/mL	5590 ng·h/mL	53%									IC50 (cyclin E/CDK2 enzyme; [2]): 4700 nM; IC50 (BT474; BT474 cells, 6 days, SRB): 290 nM; IC50 (LoVo; LoVo cells, 3 days, SRB): 410 nM
CCCOc1ccc(CN/C=C2\C(=O)NC(=O)c3ccc(I)cc32)cc1O [Example 178, (4Z)-4-{[(3-Hydroxy-4-propoxybenzyl)amino]methylene}-6-iodoisoquinoline-1,3(2H,4H)-dione]	33 mL/min/kg	1.5 L/kg	6.1 h	999 ng·h/mL	360 ng·h/mL	14%	650 nM	620 nM	1800 nM	740 nM	13900 nM				
COc1coc(CNC=C2C(=O)NC(=O)c3ccc(-n4cccc4)cc32)cc1=O [Example 317, 4-{[(5-Methoxy-4-oxo-4H-pyran-2-ylmethyl)-amino]-methylene}-6-pyrrol-1-yl-4H-isoquinoline-1,3-dione]							12000 nM	5200 nM	8400 nM	4700 nM	> 50000 nM	> 50000 nM	40 nM	251 to 254 °C (dec.)	
COc1cc2c(cc1-c1ccc(F)cc1)/C(=C/Nc1ccc(CN3CCCCC3)cc1)C(=O)NC2=O [Example 253, 6-(4-Fluoro-phenyl)-7-methoxy-4-[(4-piperidin-1-ylmethyl-phenylamino)-methylene]-4H-isoquinoline-1,3-dione]							1100 nM	2800 nM	2000 nM	2600 nM	> 50000 nM	> 50000 nM	2900 nM	227 to 230 °C	
CN(C)C/C=C/C(=O)Nc1ccc(CN/C=C2\C(=O)NC(=O)c3ccc(I)cc32)cc1O [Example 359, (2E)-4-(Dimethylamino)-N-[2-hydroxy-4-({[(Z)-(6-iodo-1,3-dioxo-2,3-dihydroisoquinolin-4(1H)-ylidene)methyl]amino}methyl)phenyl]but-2-enamide]							230 nM	120 nM	400 nM	340 nM	1500 nM	260 nM	20 nM	185 to 186 °C	
Nc1ccc(CN/C=C2\C(=O)NC(=O)c3ccc(I)cc32)cc1O [Example 122, (4Z)-4-{[(4-Amino-3-hydroxybenzyl)amino]methylene}-6-iodoisoquinoline-1,3(2H,4H)-dione]							7500 nM	5200 nM	17000 nM	9900 nM	16100 nM	1600 nM	40 nM	250 to 251 °C	
C[C@@H]1CN(c2ccc(N/C=C3\C(=O)NC(=O)c4ccc(-c5ccoc5)cc43)cc2)C[C@H](C)N1C(=O)CN(C)C [Example 373, (4Z)-4-[({4-[(3R,5S)-4-(N,N-Dimethylglycyl)-3,5-dimethylpiperazin-1-yl]phenyl}amino)methylene]-6-(3-furyl)isoquinoline-1,3(2H,4H)-dione]							750 nM	3500 nM	2100 nM	1900 nM	> 50000 nM	> 50000 nM	10 nM	191 to 192 °C	
O=C1NC(=O)c2ccc(Br)cc2/C1=C/Nc1ccc(CN2CCCC2)cc1 [Example 59, (4Z)-6-Bromo-4-({[4-(pyrrolidin-1-ylmethyl)phenyl]amino}methylene)isoquinoline-1,3(2H,4H)-dione]											> 50000 nM	25200 nM	230 nM	165 to 166 °C	IC50 (HCT-116): 4700 nM; IC50 (BT474): 6300 nM; IC50 (MCF-7): 4130 nM; IC50 (LoVo): 6100 nM
COc1cc(CN/C=C2\C(=O)NC(=O)c3ccc(-c4ccsc4)cc32)cc(O)c1OC [Example 85]							3700 nM	3500 nM	8400 nM	2700 nM	> 50000 nM	> 50000 nM	1 nM	255 to 256 °C	
O=C1NC(=O)c2ccc(-c3ccsc3)cc2C1=NNc1ccc(CN2CCCCC2)cc1 [Example 152, 4-[(4-Piperidin-1-ylmethyl-phenyl)-hydrazono]-6-thiophen-3-yl-4H-isoquinoline-1,3-dione]							2800 nM	3400 nM	6200 nM	6600 nM	36300 nM	> 50000 nM	60 nM	164 to 168 °C (dec.)	
O=C1NC(=O)c2ccc(Br)cc2/C1=C/Nc1ccc(N2CCC(N3CCCC3)CC2)c(F)c1 [Example 405, (4Z)-6-Bromo-4-({[3-fluoro-4-(4-pyrrolidin-1-ylpiperidin-1-yl)phenyl]amino}-methylene)-isoquinoline-1,3(2H,4H)-dione]											> 50000 nM	> 50000 nM	1800 nM	204 to 205 °C	IC50 (HCT-116; HCT116 cells, 3 days, SRB): 1700 nM; IC50 (BT474; BT474 cells, 6 days, SRB): 3100 nM; IC50 (MCF-7; MCF-7 cells, 3 days, SRB): 5600 nM; IC50 (LoVo; LoVo cells, 3 days, SRB): 2000 nM

— patent US7713994B2 (Wyeth LLC, priority 2005, dated 2010)
